Source: patent US8101653B2, “Therapeutic compositions” (BTG International Limited, priority 1997, dated 2012)

Experiments:
whole brain GABA levels = test: Effect of increased blood D-β-hydroxybutyrate on whole brain GABA levels; format: in vivo, rat; conditions: 120 minutes after administration as in Example 3; t=0 level 191
Description: To assess the effect of D-β-hydroxybutyrate on whole brain GABA levels, and thus provide an indication of antiepileptic effect of ketone body or precursor treatment aimed at increasing blood ketone body levels, whole rat brain was frozen at set times after administration of D-β-hydroxybutyrate as described in Example 3, GBA was assayed using standard HPLC technique and related to protein content using standard protein assay.

[1] = cited from earlier work
[2] = test system: primary hippocampal cultures; test: Effect of D-β-hydroxybutyrate on β-amyloid toxicity to hippocampal cells in vitro (microisland cultures); format: cell-based, Wistar; conditions: for neuronal cell number per microisland: increase from a mean of 30
Description: The serum free medium used from 0 to day 4 contained Neurobasal medium with B27 supplement diluted 50 fold (Life Technology, Gaithersburg, Md.) to which was added: 0.5 mM L-glutamine, 25 μM Na L-glutamate, 100 U/ml penicillin and 100 μg/ml streptomycin. After day 4, DMEM/F12 medium containing 5 μM insulin, 30 nM 1-thyroxine, 20 nM progesterone, 30 nM Na selenite 100 U/ml penicillin and 100 μg/ml streptomycin were used.
The primary hippocampal cultures were removed from Wistar embryos on day 18 and dispersed by gentle aggitation in a pipette. The suspension was centrifuge at 1,500×g for 10 min and the supernatant discarded. New media was make 0.4-0.5×10^6 cells/ml. Ten μl of this suspension was pipetted into the center of poly D-lysine coated culture wells and the plates incubated at 38° C. for 4 hrs and then 400 μl of fresh Neurobasal media was added. After 2 days of incubation, half of the media was exchanged for fresh media and the incubation continued for 2 more days. After day 4, the medium was changed with DMEM/F12 medium containing 5 μM insulin, 30 nM 1-thyroxine, 20 nM progestrone, 30 nM Na selenite 100 U/ml penicillin and 100 μg/ml streptomycin. […] These media were exchanged 2 days later (day 8) and the cells were fixed on day 10 and stained with anti MAP2 (Boehringer Manheim, Indianapolis, Id.) to visual neurons and vimentin and GFAP (Boehringer) to visualize glial cells.

[3] = test system: liver cytosolic [NAD]/[NADH]; conditions: after feeding/administration; 1,3 butandiol decrease from 1500; cited from earlier work
septal cells = conditions: 1 μm Aβ142 for 24 hours; cited from earlier work
[4] = liquid diet supplemented with 47% of its caloric content; cited from earlier work
[5] = cited from earlier work; remark: listed apart in the source
[6] = test system: cerebral circulation and regional vasomotor reflexes; conditions: in vivo; cited from earlier work
[7] = room temperature, unesterified state; cited from earlier work
[8] = Oral administration of triolide in yoghurt to rats, plasma D-β-hydroxybutyrate and tolerability; format: in vivo, Wistar rats; conditions: over at least 3 hours
Description: The ability of orally administered triolide to raise blood ketone levels was investigated as follows. The day before the experiment commenced, 12 Wistar rats weighing 316±10 g were placed in separate cages. They had no access to food for 15 hours prior to presentation with triolide containing compositions, but water was provided ad libitum.
On the morning of the experiment 0.64 g of triolide was mixed with 5 g Co-op brand Black Cherry yoghurt in separate feeding bowls for […] of the rats. The memaining 3 rats were given 5 g of the yoghurt without the triolide as controls. The yoghurt containing bowls were placed in the cages and the rats timed while they ate. Two of the three control rats ate all the yoghurt and four of the six triolide yoghurt rats ate approximately half the provided amount. The remaining […] rats slept.
Control rats (n=2) were killed at 60 and 180 minutes after ingestion of yoghurt while triolide fed rats were killed at 80, 140, 150 and 155 minutes. Blood samples were taken for assay of D-β-hydroxybutyrate. […] Blood levels of (R)-3-hydroxyburyrate were measured using a […] assay of Anal. Biochem (1983) 131, p 478-482, 1.0 ml of a solution made up from 2-amino-2-methyl-1-propanol (100 mM pH 9.9, 0.094 g/10 ml), NAD^− (30 mM. 0.199 g/10 ml) and EDTA (4 mM, 0.015 g/10 ml) was added to each of a number of cuvettes and 4 μl sample or D-β-hydroxybutyrate control.

[9] = Rats fed triolide in 'Hob-Nob' biscuit, tolerability over two weeks; format: in vivo; conditions: two rats fed approximately 1.5 g triolide each in biscuit, after two weeks
[10] = presence of D-β-hydroxybutyrate, whether β142 was present or not
[11] = intravenous infusion, normal human subjects and patients

C[C@@H](O)CC(=O)O [D-β-hydroxybutyrate, (R)-3-hydroxybutyric acid]
whole brain GABA levels (whole brain GABA levels): 466 pmoles/μg protein | pKa [1]: 4.4 | neuronal cell number per microisland ([2]; D-β-hydroxybutyrate added to cultures containing amyloid β142): 70 cells per microisland | neuronal cell number per microisland ([2]; Na D-β-hydroxybutyrate 8 mM, no amyloid): 70 cells per microisland | length of axons [2, 10]: increased | number of dendritic outgrowths [2, 10]: increased

CCO [ethanol]
liver cytosolic [NAD]/[NADH] [3]: around 200

amyloid β142: amyloid β peptide (Sigma), toxic to hippocampal neurons
activity of choline acetyl transferase (septal cells): no decrease | decrease in acetyl choline production (septal cells): over five fold

CC(O)CCO (racemic) [racemic 1,3 butandiol, 1,3 butandiol]
liver cytosolic [NAD]/[NADH] [3]: 1000 | blood D-β hydroxybutyrate concentration [4]: 0.98 mM | blood acetoacetate concentration [4]: 0.33 mM | rise of blood ketone concentration [4]: about 10 fold

C[C@@H](O)CC(=O)[O-].[Na+] [sodium salts of D-β-hydroxybutyrate]
toxicity ([5]; human, in vivo, iv): non-toxic | effect on glucose, free fatty acids and glycerol concentration [5, 11]: capable of decreasing | effect on leucine oxidation [5, 11]: ineffective

CC(O)CC(=O)[O-].[Na+] (centres unmarked) [sodium hydroxybutyrate]
increase of cerebral circulation and regional vasomotor reflexes [6]: up to 40%

CC(=O)CC(=O)O [acetoacetate]
half time of spontaneous decarboxylation to acetone [7]: about 30 days

C[C@@H]1CC(=O)O[C@H](C)CC(=O)O[C@H](C)CC(=O)O1 [triolide, (R,R,R)-4,8,12-trimethyl-1,5,9-trioxadodeca-2,6,10-trione]
ill effects from ingestion [8]: no ill effects | ill effects [9]: no ill effects
